In ChEMBL document CHEMBL3885881, “DrugMatrix”:

Species: Rattus norvegicus
Assay: DrugMatrix - Regimen: Daily Repeat
Format: toxicity, organism-based, Sprague-Dawley
Design: regimen Daily Repeat, gender Male, age 6-8 weeks
Details: in vivo, po, route oral GAVAGE, vehicle 100 % WATER; for ABSOLUTE BASOPHIL / ABSOLUTE EOSINOPHIL / ABSOLUTE LYMPHOCYTE / ABSOLUTE MONOCYTE / ABSOLUTE SEGMENTED NEUTROPHIL / BASOPHIL / EOSINOPHIL / ERYTHROCYTE COUNT / HEMATOCRIT / HEMOGLOBIN / LEUKOCYTE COUNT / LYMPHOCYTE / MEAN CORPUSCULAR HEMOGLOBIN / MEAN CORPUSCULAR HEMOGLOBIN CONCENTRATION / MONOCYTE / NEUTROPHIL / NUCLEATED RED BLOOD CELLS / PLATELET COUNT: tissue Blood; for ALANINE AMINOTRANSFERASE / ALBUMIN / ALKALINE PHOSPHATASE / BLOOD UREA NITROGEN / CARBON DIOXIDE / CHLORIDE / CHOLESTEROL / CREATINE PHOSPHOKINASE / CREATININE / GLUCOSE / LACTATE DEHYDROGENASE / LIPASE / PHOSPHORUS / POTASSIUM / SODIUM / TOTAL BILIRUBIN / TOTAL PROTEIN / URIC ACID: tissue Plasma
[1] = 0 mg/kg, 72 h, dose level Control, time 3 day
[2] = 0 mg/kg, 120 h, dose level Control, time 5 day
[3] = 15 mg/kg, 72 h, dose level Low, time 3 day

Cc1ccc(NC(=O)c2ccc(CN3CCN(C)CC3)cc2)cc1Nc1nccc(-c2cccnc2)n1 [IMATINIB]
ABSOLUTE BASOPHIL [1]: 0 CELLS/uL | ABSOLUTE EOSINOPHIL [1]: 151.33 CELLS/uL | ABSOLUTE LYMPHOCYTE [1]: 10599.5 CELLS/uL | ABSOLUTE MONOCYTE [1]: 109.5 CELLS/uL | ABSOLUTE SEGMENTED NEUTROPHIL [1]: 1139.67 CELLS/uL | BASOPHIL [1]: 0% | EOSINOPHIL [1]: 0.83% | ERYTHROCYTE COUNT [1]: 5.54 x10E6/uL | HEMATOCRIT [1]: 35.35% | HEMOGLOBIN [1]: 13.22 G/DL | LEUKOCYTE COUNT [1]: 12 x10E3/uL | LYMPHOCYTE [1]: 89% | MEAN CORPUSCULAR HEMOGLOBIN [1]: 23.88 pg | MEAN CORPUSCULAR HEMOGLOBIN CONCENTRATION [1]: 37.4 G/DL | MONOCYTE [1]: 1% | NEUTROPHIL [1]: 9.17% | NUCLEATED RED BLOOD CELLS [1]: 0 /100WBC | PLATELET COUNT [1]: 1333.33 x10E3/uL | ALANINE AMINOTRANSFERASE [1]: 53.17 u/L | ALBUMIN [1]: 4.32 G/DL | ALKALINE PHOSPHATASE [1]: 404.33 u/L | BLOOD UREA NITROGEN [1]: 15.67 mg/dL | CARBON DIOXIDE [1]: 27.33 mmol/L | CHLORIDE [1]: 101.83 MEQ/L | CHOLESTEROL [1]: 68.67 mg/dL | CREATINE PHOSPHOKINASE [1]: 276.17 u/L | CREATININE [1]: 0.18 mg/dL | GLUCOSE [1]: 163.5 mg/dL | LACTATE DEHYDROGENASE [1]: 144.67 u/L | LIPASE [1]: 8.83 u/L | PHOSPHORUS [1]: 11.72 mg/dL | POTASSIUM [1]: 5.99 MEQ/L | SODIUM [1]: 143.57 MEQ/L | TOTAL BILIRUBIN [1]: 0.2 mg/dL | TOTAL PROTEIN [1]: 6.1 G/DL | URIC ACID [1]: 1.38 mg/dL | ABSOLUTE BASOPHIL [2]: 0 CELLS/uL | ABSOLUTE EOSINOPHIL [2]: 248.67 CELLS/uL | ABSOLUTE LYMPHOCYTE [2]: 12977.83 CELLS/uL | ABSOLUTE MONOCYTE [2]: 19.67 CELLS/uL | ABSOLUTE SEGMENTED NEUTROPHIL [2]: 1137.17 CELLS/uL | BASOPHIL [2]: 0% | EOSINOPHIL [2]: 1.67% | ERYTHROCYTE COUNT [2]: 5.82 x10E6/uL | HEMATOCRIT [2]: 36.35% | HEMOGLOBIN [2]: 13.58 G/DL | LEUKOCYTE COUNT [2]: 14.38 x10E3/uL | LYMPHOCYTE [2]: 90.5% | MEAN CORPUSCULAR HEMOGLOBIN [2]: 23.32 pg | MEAN CORPUSCULAR HEMOGLOBIN CONCENTRATION [2]: 37.42 G/DL | MONOCYTE [2]: 0.17% | NEUTROPHIL [2]: 7.67% | NUCLEATED RED BLOOD CELLS [2]: 0 /100WBC | PLATELET COUNT [2]: 1337.67 x10E3/uL | ALANINE AMINOTRANSFERASE [2]: 48.5 u/L | ALBUMIN [2]: 4.32 G/DL | ALKALINE PHOSPHATASE [2]: 354.33 u/L | BLOOD UREA NITROGEN [2]: 16 mg/dL | CARBON DIOXIDE [2]: 27.33 mmol/L | CHLORIDE [2]: 100.33 MEQ/L | CHOLESTEROL [2]: 68 mg/dL | CREATINE PHOSPHOKINASE [2]: 325.17 u/L | CREATININE [2]: 0.23 mg/dL | GLUCOSE [2]: 172 mg/dL | LACTATE DEHYDROGENASE [2]: 254.83 u/L | LIPASE [2]: 8.33 u/L | PHOSPHORUS [2]: 12.17 mg/dL | POTASSIUM [2]: 6.28 MEQ/L | SODIUM [2]: 143.57 MEQ/L | TOTAL BILIRUBIN [2]: 0.18 mg/dL | TOTAL PROTEIN [2]: 6.12 G/DL | URIC ACID [2]: 1.78 mg/dL | ABSOLUTE BASOPHIL [3]: 0 CELLS/uL | ABSOLUTE EOSINOPHIL [3]: 119.67 CELLS/uL | ABSOLUTE LYMPHOCYTE [3]: 6343 CELLS/uL | ABSOLUTE MONOCYTE [3]: 102.67 CELLS/uL | ABSOLUTE SEGMENTED NEUTROPHIL [3]: 568 CELLS/uL | BASOPHIL [3]: 0% | EOSINOPHIL [3]: 1.67% | ERYTHROCYTE COUNT [3]: 5.21 x10E6/uL | HEMATOCRIT [3]: 33.27% | HEMOGLOBIN [3]: 12.53 G/DL | LEUKOCYTE COUNT [3]: 7.13 x10E3/uL | LYMPHOCYTE [3]: 89.33% | MEAN CORPUSCULAR HEMOGLOBIN [3]: 24.03 pg | MEAN CORPUSCULAR HEMOGLOBIN CONCENTRATION [3]: 37.7 G/DL | MONOCYTE [3]: 1.33% | NEUTROPHIL [3]: 7.67% | NUCLEATED RED BLOOD CELLS [3]: 0 /100WBC | PLATELET COUNT [3]: 1102.33 x10E3/uL | ALANINE AMINOTRANSFERASE [3]: 49.67 u/L | ALBUMIN [3]: 4.23 G/DL | ALKALINE PHOSPHATASE [3]: 362.67 u/L | BLOOD UREA NITROGEN [3]: 15.33 mg/dL | CARBON DIOXIDE [3]: 28.33 mmol/L | CHLORIDE [3]: 102 MEQ/L | CHOLESTEROL [3]: 64.67 mg/dL | CREATINE PHOSPHOKINASE [3]: 198.67 u/L | CREATININE [3]: 0.21 mg/dL | GLUCOSE [3]: 165 mg/dL | LACTATE DEHYDROGENASE [3]: 128.33 u/L | LIPASE [3]: 8 u/L | PHOSPHORUS [3]: 11 mg/dL | POTASSIUM [3]: 5.66 MEQ/L | SODIUM [3]: 144.5 MEQ/L | TOTAL BILIRUBIN [3]: 0.2 mg/dL | TOTAL PROTEIN [3]: 6.03 G/DL | URIC ACID [3]: 0.97 mg/dL
